Each structure is given as a SMILES string. Converted amounts (≈) assume the structure as drawn.

Broadly, the kinetic solubility is solubility judged after dilution from a stock solution rather than from solid.

For this data set the following is noted: buffer; pH 7.4; 200.0 µM.
In turn, `COc1cccc(N(C(C)=O)C2=NCCCS2)c1` came in with a solubility (kinetic) of more than 39.7 µg/mL. `O=C(COC(=O)c1ccco1)NCc1ccc(Cl)cc1` displayed a kinetic solubility of 16.4 µg/mL (≈ 55.8 µM).

For the compound `CN(C)S(=O)(=O)c1cccc(NC(=O)COC(=O)c2cccnc2Cl)c1`, the solubility (kinetic) was more than 59.7 µg/mL. The compound `CC(=O)Nc1c2c(nn1-c1ccc(F)cc1)CSC2` displayed a kinetic solubility of more than 41.6 µg/mL. Turning to `O=C(COC(=O)c1cnccn1)c1ccc([N+](=O)[O-])cc1`, the kinetic solubility is more than 43.1 µg/mL.

With `CC(=O)Nc1ccc(C(=O)NCCCSc2ccccc2)cc1`, the kinetic solubility worked out at 5.3 µg/mL (≈ 16.1 µM). `O=C(COC(=O)CCC1CCCC1)Nc1ccccc1OC(F)F` showed a solubility (kinetic) of 9.7 µg/mL (≈ 28.4 µM). Regarding `CN(C)CCCNC(=O)c1cc(C(=O)c2ccc(F)cc2)c[nH]1`, the kinetic solubility is more than 47.6 µg/mL. `O=c1[nH]c(=S)n(Cc2ccc(F)cc2)c(O)c1C=NCc1ccc2c(c1)OCO2` came in with a solubility (kinetic) of 0.4 µg/mL (≈ 0.968 µM). On to `CCOC(=O)C1=C(C)Nc2ccccc2N=C1NC(=O)C1CCN(C(=O)c2ccccc2C)CC1`, for which the kinetic solubility worked out at 35.3 µg/mL (≈ 74.4 µM). For the compound `Cc1[nH]c2ccccc2c1C(=O)C(=O)N(C)C1CCCCC1`, the kinetic solubility was more than 44.8 µg/mL. The compound `CS(=O)(=O)N1CCC(C(=O)NCc2ccc3c(c2)OCO3)CC1` returned a kinetic solubility of more than 51.1 µg/mL. Next, `COc1ccc(C(=O)COC(=O)CNC(=O)c2ccc(OC)cc2)cc1`: 17.3 µg/mL (≈ 48.4 µM).

In the case of `CN1CCN(C(=O)CNC(=O)Cc2ccc(Cl)cc2)CC1`, the kinetic solubility is more than 46.5 µg/mL. Turning to `CSc1ncccc1C(=O)OCC(=O)Nc1cccc(S(=O)(=O)N2CCOCC2)c1`, the solubility (kinetic) amounted to 34.7 µg/mL (≈ 76.9 µM). For the compound `CCOC(=O)N1CCN(C(=O)COC(=O)c2cc(Cl)cc(Cl)c2)CC1`, the kinetic solubility was 57.2 µg/mL (≈ 147 µM). `CCOC(=O)c1cc2c(cn1)[nH]c1ccccc12`: the kinetic solubility amounted to 7.5 µg/mL (≈ 31.2 µM). Compound `COc1cc([N+](=O)[O-])ccc1NC(=O)C1C2C=CC(C2)C1C(=O)O` (configuration not stated) yielded a solubility (kinetic) of more than 49.8 µg/mL.

`Cc1noc(NS(=O)(=O)c2ccc(NC(=O)COc3ccc(C#N)cc3)cc2)c1C` registered a kinetic solubility of more than 64 µg/mL. Consider `O=C(/C=C/c1ccccc1Cl)Nc1cccnc1`, for which the kinetic solubility was determined as 27 µg/mL (≈ 104 µM). In the case of `O=S(=O)(Cc1ccc(Cl)cc1)NCc1cccnc1`, the solubility (kinetic) is more than 44.5 µg/mL. Next, `Brc1cccc(CNCC2CCCO2)c1` (configuration not stated): more than 40.5 µg/mL; `CC1=C(C#N)S(=O)(=O)C(C#N)C(c2ccccc2)C1` (configuration not stated): 30.1 µg/mL (≈ 111 µM). Compound `CCNCc1cc([N+](=O)[O-])ccc1OCC.Cl` showed a solubility (kinetic) of more than 39.1 µg/mL. Regarding `Cc1cccc(/C=C/c2onc(C)c2[N+](=O)[O-])n1`, the solubility (kinetic) stood at 2.8 µg/mL (≈ 11.4 µM).

As to `CC1CN(S(=O)(=O)c2cc(C(=O)NCCCN3CCCC3=O)ccc2Cl)CC(C)O1` (configuration not stated), the solubility (kinetic) was more than 68.7 µg/mL. With `COc1ccc(CC(=O)NCC(C)(C)N2CCOCC2)cc1`, the solubility (kinetic) is more than 46 µg/mL.

The compound `COc1ccc(CNC(=O)COC(=O)c2sccc2C)cc1OC` returned a solubility (kinetic) of 12.4 µg/mL (≈ 35.5 µM). `COc1ccc(C(=O)n2cc(C(C)=O)c3ccccc32)cc1` returned a solubility (kinetic) of 1.3 µg/mL (≈ 4.43 µM).

`C=C(C)C1CC=C(CN2CCN(Cc3ccccc3)CC2)CC1` (configuration not stated) showed a solubility (kinetic) of 17.8 µg/mL (≈ 57.3 µM). Next, `S=C(Nc1ccccc1)Nc1ccc(Cl)cn1`: 2.1 µg/mL (≈ 7.96 µM); `CCN(CC)S(=O)(=O)c1cccc(NC2=NCC(C)S2)c1` (configuration not stated): more than 49.1 µg/mL.

The compound `C[C@H](NC(=O)Nc1cccc(Br)c1)C(=O)O` had a solubility (kinetic) of more than 43.1 µg/mL. Take `Cc1ccc(NC(=O)CC(N)=S)cc1`: the kinetic solubility was 30.7 µg/mL (≈ 147 µM). The compound `Cc1ccc(NC(=O)CNC2CCCCC2)cc1Cl` had a solubility (kinetic) of 21.1 µg/mL (≈ 75.1 µM). `O=C1NC(=O)c2cc([N+](=O)[O-])cc3cccc1c23` displayed a solubility (kinetic) of 6.3 µg/mL (≈ 26 µM). As to `N#CC1CCN(c2ncccc2[N+](=O)[O-])CC1`, the kinetic solubility was more than 34.8 µg/mL. Consider `COc1ccc2nc(SCC(=O)NC3CCCC3)c(C)cc2c1`, for which the kinetic solubility was less than 0.4 µg/mL.

For the compound `COc1ccc(C2NC(=O)N(C)C(C)=C2[N+](=O)[O-])cc1` (configuration not stated), the kinetic solubility was more than 41.6 µg/mL.

With `CC1CCCCN1C(=O)COC(=O)Cc1c[nH]c2ccccc12` (configuration not stated), the solubility (kinetic) was more than 47.2 µg/mL. Next, `COc1ccc(NC(=O)[C@@H](NC(N)=O)C(C)C)cc1Cl`: more than 45 µg/mL. Compound `Cc1cc(C)n(Cc2cc(C(=O)O)c3ccccc3n2)n1` came in with a solubility (kinetic) of more than 42.2 µg/mL. Next, `NC(=O)[C@@H]1CCCN1Cc1nc(-c2ccccc2)no1`: 31.9 µg/mL (≈ 117 µM); `N#C/C(=C\c1cccs1)C(=O)c1ccccc1Cl`: more than 41.1 µg/mL. Compound `Cc1ccc(C(C)C)cc1S(=O)(=O)NC1CC(C)(C)NC(C)(C)C1` returned a solubility (kinetic) of 35.2 µg/mL (≈ 99.8 µM). Consider `COC(=O)c1sc(-c2cccs2)cc1N`, for which the solubility (kinetic) was 7.2 µg/mL (≈ 30.1 µM). Next, `Cc1cccc(N=C2NC(=O)/C(=C/c3cccn3C)S2)c1`: 1 µg/mL (≈ 3.36 µM); `C/C(Cl)=C/Cn1c(N2CCCC2)nc2c1c(=O)[nH]c(=O)n2C`: 45 µg/mL (≈ 139 µM). `CCS(=O)(=O)N1CCC(C(=O)NCc2ccc3c(c2)OCO3)CC1` gave a kinetic solubility of more than 53.2 µg/mL. Regarding `O=C(CCn1c(=S)oc2ccccc21)Nc1cccc(O)c1`, the kinetic solubility is 8.6 µg/mL (≈ 27.4 µM).

Consider `COCCNC(=S)NC(=O)c1ccc(C(C)(C)C)cc1`, for which the solubility (kinetic) was found to be 14 µg/mL (≈ 47.6 µM).

Consider `CC(C)N(CC#CC(O)(c1ccccc1)c1ccccc1)C(C)C`, for which the solubility (kinetic) was more than 48.2 µg/mL. For the compound `COc1ccc(/C=C/C(=O)NC(=S)NCc2ccccc2)cc1OC`, the kinetic solubility was 2.4 µg/mL (≈ 6.73 µM).

As for `O=C(CN1C(=O)NC2(CCCCCC2)C1=O)NCc1ccccc1`, the kinetic solubility was more than 49.4 µg/mL. The figure for `CCS(=O)(=O)N1CCC(C(=O)Oc2ccccc2Cl)CC1` is 46 µg/mL (≈ 139 µM). The figure for `Cc1ccc(C(=O)NCC(=O)OCC(=O)Nc2cc(S(=O)(=O)N3CCOCC3)ccc2Cl)s1` is more than 77.4 µg/mL.

On to `O=S(=O)(NC1=NCCC1)c1ccc(F)cc1F`, for which the kinetic solubility is more than 39 µg/mL. `CN(C)S(=O)(=O)c1cc(NC(=O)COC(=O)CC2Sc3ccccc3NC2=O)ccc1Cl` (configuration not stated): the kinetic solubility turned out to be 12.2 µg/mL (≈ 24.5 µM). Compound `CCN1CCOC(CC(=O)Nc2ccc([N+](=O)[O-])cc2)C1=O` (configuration not stated) showed a kinetic solubility of 40.2 µg/mL (≈ 131 µM). With `Cc1ccc(NC(=O)C2CCN(C(=O)c3cccs3)CC2)cc1`, the solubility (kinetic) is more than 49.3 µg/mL.

Take `Cc1ccc2[nH]c(C(=O)N3CCC(C(N)=O)CC3)cc2c1`: the solubility (kinetic) is more than 42.8 µg/mL. Compound `Cc1cccc(NC(=O)CCS(=O)(=O)c2ccccc2)n1` returned a solubility (kinetic) of more than 45.7 µg/mL. In turn, `O=C(c1cc2cc(Cl)ccc2[nH]1)N1CCN(c2ccccc2F)CC1` gave a kinetic solubility of less than 0.3 µg/mL.

The compound `Cc1ccc(C(=O)O/N=C(\N)Cc2cccc3ccccc23)cc1` showed a solubility (kinetic) of 0.5 µg/mL (≈ 1.57 µM). The figure for `COC(=O)CC(c1ccccc1F)N1Cc2ccccc2C1=O` (configuration not stated) is more than 47 µg/mL; for `O=C(Cc1ccc(Br)cc1)N1CCc2ccccc2C1` it is 3.9 µg/mL (≈ 11.8 µM). In turn, `O=C(O)CCN1C(=O)C2C3c4ccccc4C(c4ccccc43)[C@@H]2C1=O` (some centres not stated) returned a solubility (kinetic) of 46.8 µg/mL (≈ 135 µM).

In the case of `CCc1ccccc1NC(=O)C1COc2ccccc2O1` (configuration not stated), the solubility (kinetic) amounted to 33.4 µg/mL (≈ 118 µM). In turn, `Cc1ccc(C(=O)COC(=O)C(C)N2C(=O)C3C4C=CC(C4)C3C2=O)cc1C` (configuration not stated) gave a solubility (kinetic) of 55.5 µg/mL (≈ 146 µM).

`O=C(NCc1cccc(Cl)c1)NC(=O)c1csc([N+](=O)[O-])c1`: the solubility (kinetic) is less than 0.2 µg/mL. Next, `O=C(Cc1cccs1)Nc1ccc(F)cc1F`: 30 µg/mL (≈ 118 µM).

`CC(NC(=O)c1ccc(F)cc1F)C1CC2CCC1C2` (configuration not stated) had a kinetic solubility of 12.7 µg/mL (≈ 45.5 µM). Compound `CCc1cc2c(=O)n(-c3ccccc3)c(SCC(=O)O)nc2s1` came in with a kinetic solubility of more than 52 µg/mL. The figure for `CCc1nnc(NC(=O)C2CCCO2)s1` (configuration not stated) is more than 34.1 µg/mL; for `CCc1ccc(-c2csc3nc[nH]c(=O)c23)cc1` it is 12 µg/mL (≈ 46.8 µM). Compound `CC(=O)Nc1ccc(S(=O)(=O)NC2CC2)cc1` registered a kinetic solubility of 37.6 µg/mL (≈ 148 µM). Turning to `O=C(Nc1cc(S(=O)(=O)N2CCOCC2)ccc1N1CCOCC1)c1ccccc1[N+](=O)[O-]`, the kinetic solubility is more than 71.5 µg/mL. Compound `Cc1cc(OCC(=O)NCCN2CCOCC2)cc(C)c1Cl` registered a kinetic solubility of more than 49 µg/mL. The compound `O=C(O)C1C2CCC(C2)C1C(=O)N1CCCC1` (configuration not stated) yielded a solubility (kinetic) of more than 35.6 µg/mL.

As to `O=c1[nH]c([O-])c(Cc2ccc3c(c2)OCO3)c(=O)[nH]1.[NH4+]`, the solubility (kinetic) was found to be 29.7 µg/mL. In turn, `CCCCn1c(CCl)nc2cc(S(=O)(=O)N3CCOCC3)ccc21` yielded a solubility (kinetic) of more than 55.8 µg/mL. As for `COc1ccccc1CCNC1CCCCCC1`, the solubility (kinetic) is more than 37.1 µg/mL. As for `O=C(NC(=S)NNC(=O)c1ccco1)c1ccccc1`, the kinetic solubility is more than 43.4 µg/mL. The figure for `Cc1cc(C)c(C#N)c(SCC(=O)Nc2cc(C)on2)n1` is 2.1 µg/mL (≈ 6.95 µM).

As to `NC(=O)C1(N2CCCCC2)CCN(Cc2nc(-c3cccs3)no2)CC1`, the kinetic solubility is more than 56.3 µg/mL. Consider `COc1ccccc1CCn1cc(C#N)c(=O)[nH]c1=O`, for which the solubility (kinetic) is more than 40.7 µg/mL. `COc1ccc(C2CN(C)CC2C(=O)c2ccc(C)cc2)cc1Cl` (configuration not stated) yielded a kinetic solubility of 40.1 µg/mL (≈ 117 µM).

`Cc1cc(C)c(S(=O)(=O)NCc2ccc3c(c2)OCO3)c(C)c1` had a solubility (kinetic) of 1.7 µg/mL (≈ 5.1 µM).

For `COc1ccc(S(=O)(=O)Nc2cc(C)on2)cc1`, the kinetic solubility turned out to be 36.1 µg/mL (≈ 135 µM).

For `N#Cc1c(-c2ccccc2)nc(SCc2ccc(Cl)cc2)[nH]c1=O`, the kinetic solubility came to 51.9 µg/mL (≈ 147 µM). Next, `COCCn1c(C)cc(C(=O)COC(=O)c2ccc(S(=O)(=O)N(C)C)cc2)c1C`: 2.4 µg/mL (≈ 5.68 µM). `CCOc1ccc(NC(=O)CN2C(=O)NC3(CCCCCC3)C2=O)cc1`: the kinetic solubility was more than 53.9 µg/mL. `CN(C(=O)CSc1nncn1-c1ccccc1)c1ccccc1` returned a kinetic solubility of more than 48.7 µg/mL. The figure for `COc1ccc2c(=O)c(C(=O)NCc3ccccc3)c[nH]c2c1` is 2.3 µg/mL (≈ 7.46 µM). As to `Cc1cc(=O)oc2cc(NC(=O)Cc3ccccc3)ccc12`, the solubility (kinetic) worked out at 1.1 µg/mL (≈ 3.75 µM). `O=C(COC(=O)C1CC2CCCC(C1)C2=O)Nc1ccc(F)c(Cl)c1` (configuration not stated) came in with a kinetic solubility of 54.9 µg/mL (≈ 149 µM). The figure for `Cc1ccc(NC(=S)c2ccncc2)c(C)c1` is 34.2 µg/mL (≈ 141 µM); for `Cc1ccnc(Nc2nc(-c3ccc(F)cc3)cs2)c1` it is less than 0.2 µg/mL. Compound `Cc1ccc(S(=O)(=O)N2CCOCC2)cc1NC(=O)CNCc1ccc(Cl)cc1Cl` displayed a solubility (kinetic) of 5.4 µg/mL (≈ 11.4 µM). The figure for `Cc1ccc(SCCSc2ncccn2)cc1` is 1.7 µg/mL (≈ 6.48 µM); for `O=C(Nc1cccc(F)c1)NC1CCCc2ccccc21` (configuration not stated) it is 2.1 µg/mL (≈ 7.39 µM); for `CCOC(=O)c1sc(-c2ccc(Cl)cc2Cl)nc1O` it is 28.2 µg/mL (≈ 88.6 µM).
